From patent US20230136702A1, “Inhibitors of Human Herpesviruses” (The Governors of the University of Alberta, priority 2020, published 2023)
Where a name gives a salt, the structure may show the parent alone. Read-outs that look alike come from different tables or passages of the source.

How the values were obtained:
[1] = Cytotoxicity in MRC5 cells without virus infection (CCK8); assay type: cell-based; details: human
Procedure: (§1) Exemplary compounds (e.g., as described herein) were prepared as 20 mM stock solutions with DMSO. Reference compound was ganciclovir (Sigma). Compounds were tested at 8 concentrations, 3-fold serial dilutions, in duplicate for EC50 and CC50 determinations. The highest testing concentrations of the exemplary compounds and reference compound were 40 μM and 100 μM, respectively. The final concentration of DMSO in the cell culture was 0.5%.
(§2) MRC5 cells (ATCC CCL-171) was obtained from the ATCC and maintained in the EMEM (Sigma) supplemented with 10% FBS (HyClone), 1% L-glutamine (Gibco), 1% NEAA (Gibco), and 1% PS (Hyclone). Reagent:
Cytotoxicity of the compounds was assessed under the same conditions, but without virus infection, in parallel. Cell viability was measured with CCK8 following the manufacturer's manual. CC50 values were then calculated based on cytotoxicity at the test concentrations normalized by the medium control (medium only).
(§3) Antiviral activity and cytotoxicity of the compounds were expressed as % Inhibition and % Viability, respectively, and calculated with the formulas below:
Viability (%)=(Raw dataCPD−AverageMC)/(AverageCC−AverageMC)*100
(§4) Raw dataCPD indicates the values of the compound-treated wells; AverageVC, AverageCC and AverageMC indicate the average values of the virus control (cells infected with virus, without compound treatment), cell control and medium control wells, respectively.
(§5) EC50 and CC50 values were calculated using the GraphPad Prism software.

[2] = molecular target: T1, HCMV DNA polymerase (UL54) (Human cytomegalovirus, UniProt P08546); test: HCMV DNA polymerase enzyme inhibition assay (ProFoldin, fluorescence); assay type: biochemical; details: 37° C., duplicate, max 40 μM
T1 construct: 6His (C); made in house; host or cells: Sf9 insect cells (baculovirus, pFastBac)
Procedure: The HCMV DNA polymerase assay was developed by ProFoldin. The assay detects the formation of DNA from the DNA polymerase reaction in the presence of a DNA template, dATP and dGTP. The formation of the DNA is detected by using a fluorescence method. The fluorescence intensity increases when DNA is generated by the enzyme reaction.
A time-course experiment was performed aside the enzyme inhibition assay to ensure the assay was sensitive to the enzyme inhibition. The wells for the time-course experiment contained 1 μL of DMSO and the same reaction mixture as that in the enzyme inhibition assay. The time-course data varied between plates. The reactions were stopped when the fluorescence reached a value of about 3700 for each plate.
Exemplary solid compounds (e.g., as described herein) were dissolved in DMSO to make […] stock solutions. PFA (phosphonoformic acid or phosphonomethanoic acid) was used as a positive control. The compound mother plates were prepared at 50× concentrated compound concentrations with a 2-fold serial dilution. All the exemplary compounds except PFA were diluted in DMSO. PFA was diluted in water. The maximum compound concentration was 2 mM that gave the final concentration of 40 μM in the assay. One microliter of the 50× stock solutions was transferred into the assay plates. Three copies of assay plates were prepared, two for HCMV DNA polymerase assay and one for compound background control.
The following is the protocol for enzyme inhibition performed at 37° C.:
1. Prepared a premix composed of 35347 μL of H2O, 5220 μL of 10× assay buffer and 149 μL of 350×HCMV DNA polymerase.
2. Added 39 μL of the premix into the wells with 1 μL of the compound. Incubated the mixture for at least 5 min.
3. Added 10 μL of 5×dNTP (0.1 mM), 5×DNA template solutions into each well and incubated the solution until the fluorescence value reached a value about 3700 for the DMSO-only control wells.
4. Added 50 μL of the 1× dye into the wells.
5. Read the fluorescence at emission wavelength of 535 nm and excitation wavelength of 485 nm.
For the compound background reading, added 99 μL of water in the wells with 1 μL of compounds and read the fluorescence. […] The 0% inhibition value F0 was from the wells with DMSO (no inhibitor).
The background values were subtracted from the fluorescence reading to get the net fluorescence values. The net fluorescence values were used for calculation of the percentage inhibition.
The assay was performed in duplicate for the test article at […], 1.25, 0.625, 0.313, 0.156 and 0.078 μM. The IC50 curves were obtained by fitting the percentage inhibition values with the compound concentrations using Prism GraphPad software.

hERG potassium channel = molecular target: T2, hERG potassium channel (Homo sapiens, UniProt Q12809); test: Inhibition of hERG potassium channel, automated patch clamp (SyncroPatch 384PE) in CHO cells; assay type: cell-based
T2 construct: host or cells: CHO cells stably expressing hERG
Procedure: This automated patch clamp method (SyncroPatch 384PE) CHO cells stably expressing hERG potassium channels from Sophion Biosciences were used for this test.
The cells were cultured in a humidified and air-controlled (5% C02) incubator at 37° C.
The CHO cells which were at least two days after plating and more than 75% confluent would be used for experiments. Before testing, cells were harvested using TrypLE and resuspended in the physiological solution at the room temperature.
For the electrophysiological recordings the following solutions were used (Table 5). The physiological solution and external solution were prepared at least one month. The intracellular solution was prepared in batches aliquoted, and stored at 4° C. until used.
Exemplary compounds (e.g., as described herein) were dissolved in 100% DMSO to obtain stock solutions for different test concentrations. Then the stock solutions were further diluted into external solution to achieve final concentrations for testing. Visual check for precipitation was conducted before testing. Final DMSO concentration in external solution was not more than 0.30% for the compounds.
From this holding potential of −80 mV, the voltage was first stepped to −50 mV for 80 ms for leak subtraction, and then stepped to +20 mV for 4800 ms to open hERG channels. After that, the voltage was stepped back down to −50 mV for 5000 ms, causing a “rebound” or tail current, which was measured and collected for data analysis. Finally, the voltage was stepped back to the holding potential (−80 mV, 1000 ms). This voltage command protocol was repeated every 20000 msec. This command protocol was performed continuously during the test (vehicle control and test compound).
hERG SyncroPatch assay was conducted at room temperature. The Setup, Prime Chip, Catch and Seal Cells, Amplifier Settings, Voltage and Application Protocols were established with Biomek Software (Nanion).
One addition of 40 μL of the vehicle was applied, followed by 300s for a baseline period. Then the doses of exemplary test compounds were added with 40 μL. The exposure of test compound at each concentration was no less than 300s. […] Five concentrations (0.494 μM, 1.48 μM, 4.44 μM, 13.33 μM and 40.00 μM) were tested for each compound. Minimum 2 replicates per concentration were obtained.
Within each well recording, percent of control values were calculated for each test compound concentration current response based on peak current in presence of reference control (current response/peak current)×100%. The Dose-Response curves were fit to the standard Hill equation as shown below:
Ipost cpd/Ipre cpd=Bottom+(Top−Bottom)/(1+10^((Log IC50−X)*HillSlope))
Where X is the logarithm of concentration, Ipost cpd/Ipre cpd is the normalized peak current amplitude, Top is 1 and Bottom is equal to 0.
Curve-fitting and IC50 calculations were performed by GraphPad Prism 5.0. If the inhibition obtained at the lowest concentration tested was over 50%, or at the highest concentration tested was less than 50%, we reported the IC50 as less than lowest concentration, or higher than highest concentration, respectively.

[3] = system: HCMV US3-6-EGFP-HCMV-AD169 strain; test: In vitro inhibitory (antiviral) activity against HCMV, GFP reporter in MRC5 cells; assay type: cell-based, Human cytomegalovirus (HCMV); details: Human betaherpesvirus 5, AD169, MRC5, 96 h, read-out: HCMV Antiviral EC50 range
Procedure: as §1
HCMV US3-6-EGFP-HCMV-AD169 strain was obtained from Institute Pasteur of Shanghai, CAS. The virus contains GFP as a reporter of the viral replication.
as §2
In 96-well plates, MRC5 cells were seeded at 20,000 cells per well and cultured at 37° C. and 5% C02 overnight. Next day, compounds (8 concentrations, 3-fold dilutions, in duplicate) and US3-6-EGFP-HCMV-AD169 (MOI=0.1) were added to the cells. The resulting cultures were incubated at 37° C. and 5% C02 for 4 days. Fluorescence intensity was determined by Acumen Cellista (TTP LabTech). The antiviral activity of each compound was calculated based on the inhibition of expression of GFP at each concentration normalized by the cell control (cells without virus infection or compound treatment).
as §3
Inhibition (%)=100−(Raw dataCPD−AverageCC)/(AverageVC−AverageCC)*100
as §4, §5

[4] = CHO cells stably expressing hERG, room temperature, 0.494-40.00 μM, read-out: CHO-hERG Activity Range

T1 sequence (P08546 whole entry): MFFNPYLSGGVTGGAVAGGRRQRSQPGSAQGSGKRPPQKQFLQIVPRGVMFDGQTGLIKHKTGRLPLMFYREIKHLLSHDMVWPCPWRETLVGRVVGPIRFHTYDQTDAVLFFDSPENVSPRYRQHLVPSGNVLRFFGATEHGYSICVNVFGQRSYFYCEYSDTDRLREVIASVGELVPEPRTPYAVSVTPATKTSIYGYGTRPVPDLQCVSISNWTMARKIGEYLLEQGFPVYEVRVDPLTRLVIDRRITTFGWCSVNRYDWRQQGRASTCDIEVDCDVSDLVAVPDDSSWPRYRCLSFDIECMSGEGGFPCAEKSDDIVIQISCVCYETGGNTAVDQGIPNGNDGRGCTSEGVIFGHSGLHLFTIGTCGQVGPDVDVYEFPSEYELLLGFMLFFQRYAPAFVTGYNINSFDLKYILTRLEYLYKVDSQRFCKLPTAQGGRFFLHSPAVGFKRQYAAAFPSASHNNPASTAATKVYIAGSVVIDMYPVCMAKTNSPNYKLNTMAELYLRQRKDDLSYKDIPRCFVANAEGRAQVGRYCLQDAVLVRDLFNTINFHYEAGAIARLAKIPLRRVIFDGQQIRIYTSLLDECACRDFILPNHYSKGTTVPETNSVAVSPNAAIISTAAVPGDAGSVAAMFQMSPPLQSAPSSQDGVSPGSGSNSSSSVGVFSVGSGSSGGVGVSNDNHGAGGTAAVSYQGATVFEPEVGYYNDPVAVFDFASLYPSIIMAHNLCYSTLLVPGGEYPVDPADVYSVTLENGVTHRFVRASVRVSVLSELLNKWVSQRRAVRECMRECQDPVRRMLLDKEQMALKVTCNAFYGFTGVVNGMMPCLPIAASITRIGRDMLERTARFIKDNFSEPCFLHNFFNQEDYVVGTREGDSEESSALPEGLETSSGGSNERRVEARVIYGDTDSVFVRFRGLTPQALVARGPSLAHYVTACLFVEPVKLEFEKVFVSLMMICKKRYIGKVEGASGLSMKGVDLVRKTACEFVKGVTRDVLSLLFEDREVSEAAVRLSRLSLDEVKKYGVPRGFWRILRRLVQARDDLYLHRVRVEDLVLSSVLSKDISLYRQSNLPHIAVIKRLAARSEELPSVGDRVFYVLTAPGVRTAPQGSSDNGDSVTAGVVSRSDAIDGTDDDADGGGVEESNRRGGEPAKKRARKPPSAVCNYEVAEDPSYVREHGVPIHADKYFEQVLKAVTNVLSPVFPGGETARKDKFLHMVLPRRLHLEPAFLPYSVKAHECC
T2 sequence (Q12809 whole entry): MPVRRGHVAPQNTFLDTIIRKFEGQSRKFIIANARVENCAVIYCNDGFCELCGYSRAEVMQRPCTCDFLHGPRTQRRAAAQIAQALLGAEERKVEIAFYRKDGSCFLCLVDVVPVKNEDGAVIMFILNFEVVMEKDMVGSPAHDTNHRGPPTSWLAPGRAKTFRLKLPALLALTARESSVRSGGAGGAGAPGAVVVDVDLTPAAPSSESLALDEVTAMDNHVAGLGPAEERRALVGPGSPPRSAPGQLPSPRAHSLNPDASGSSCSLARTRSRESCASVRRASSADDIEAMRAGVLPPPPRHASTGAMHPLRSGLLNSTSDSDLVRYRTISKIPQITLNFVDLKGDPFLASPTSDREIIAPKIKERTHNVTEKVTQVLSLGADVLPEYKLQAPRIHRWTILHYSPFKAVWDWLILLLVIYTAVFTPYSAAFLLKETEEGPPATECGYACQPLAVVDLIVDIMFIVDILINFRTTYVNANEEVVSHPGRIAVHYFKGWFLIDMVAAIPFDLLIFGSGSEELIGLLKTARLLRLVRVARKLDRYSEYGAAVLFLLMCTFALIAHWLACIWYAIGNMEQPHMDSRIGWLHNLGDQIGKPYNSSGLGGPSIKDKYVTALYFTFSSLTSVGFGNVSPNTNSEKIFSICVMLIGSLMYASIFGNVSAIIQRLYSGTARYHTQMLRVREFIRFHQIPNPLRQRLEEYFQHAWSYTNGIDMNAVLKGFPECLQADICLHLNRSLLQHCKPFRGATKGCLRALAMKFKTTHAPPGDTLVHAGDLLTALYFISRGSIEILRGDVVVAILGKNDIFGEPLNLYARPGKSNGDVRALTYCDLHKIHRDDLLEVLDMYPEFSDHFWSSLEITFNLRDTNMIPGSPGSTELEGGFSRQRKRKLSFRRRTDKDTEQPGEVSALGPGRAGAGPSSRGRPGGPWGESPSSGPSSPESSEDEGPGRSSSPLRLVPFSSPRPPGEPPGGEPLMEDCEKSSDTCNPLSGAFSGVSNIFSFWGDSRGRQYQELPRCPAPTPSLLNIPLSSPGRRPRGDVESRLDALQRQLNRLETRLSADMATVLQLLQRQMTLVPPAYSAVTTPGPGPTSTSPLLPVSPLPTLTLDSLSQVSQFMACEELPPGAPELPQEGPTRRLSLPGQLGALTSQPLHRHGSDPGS

Compound `CC1(C)CN(C(=O)Cn2c(=O)c(C(=O)NCc3ccc(Cl)cc3)cc3nc(N4CCN(C(C)(C)C(=O)O)C4=O)cnc32)C1` [Compound 43, 2-[3-(7-{[(4-chlorophenyl)methyl]carbamoyl}-5-[2-(3,3-dimethylazetidin-1-yl)-2-oxoethyl]-6-oxo-5,6-dihydropyrido[2,3-b]pyrazin-2-yl)-2-oxoimidazolidin-1-yl]-2-methylpropanoic acid] has a CC50 at 4 days [1] greater than 40 µM, an IC50 [2] of less than 1 µM and an IC50 (hERG potassium channel; [4]) greater than 10 µM. It also gave an EC50 [3] of less than 1 µM.
For `CN(C)C(=O)CN1CCN(c2cnc3c(cc(C(=O)NCc4ccc(Cl)cc4)c(=O)n3CC(=O)N3CC(C)(F)C3)n2)C1=O` [Compound 21], the CC50 at 4 days [1] was greater than 40 µM, the IC50 [2] was less than 1 µM and the IC50 (hERG potassium channel; [4]) was greater than 10 µM. For the same compound, the EC50 [3] was less than 1 µM.
`CN(C)CCN1CCN(c2cnc3c(cc(C(=O)NCc4ccc(Cl)cc4)c(=O)n3CC(=O)N3CC(C)(F)C3)n2)C1=O` [Compound 42, N-[(4-chlorophenyl)methyl]-2-{3-[2-(dimethylamino)ethyl]-2-oxoimidazolidin-1-yl}-5-[2-(3-fluoro-3-methylazetidin-1-yl)-2-oxoethyl]-6-oxo-5,6-dihydropyrido[2,3-b]pyrazine-7-carboxamide] showed a CC50 at 4 days [1] greater than 40 µM, an IC50 [2] greater than 1 µM and an IC50 (hERG potassium channel; [4]) greater than 10 µM. The EC50 [3] was less than 1 µM.
`CN1CCN(c2cnc3c(cc(C(=O)NCc4ccc(Cl)cc4)c(=O)n3CC(=O)N3CC(C)(F)C3)n2)C1=O` [Compound 3, N-[(4-chlorophenyl)methyl]-5-[2-(3-fluoro-3-methylazetidin-1-yl)-2-oxoethyl]-2-(3-methyl-2-oxoimidazolidin-1-yl)-6-oxo-5,6-dihydropyrido[2,3-b]pyrazine-7-carboxamide] gave a CC50 at 4 days [1] greater than 40 µM, an IC50 [2] of less than 1 µM and an IC50 (hERG potassium channel; [4]) greater than 10 µM. The EC50 [3] was less than 1 µM.
For `CC(=O)N(C)CCN1CCN(c2cnc3c(cc(C(=O)NCc4ccc(Cl)cc4)c(=O)n3CC(=O)N3CC(C)(F)C3)n2)C1=O` [Compound 22, 2-(3-{2-[acetyl(methyl)amino]ethyl}-2-oxoimidazolidin-1-yl)-N-[(4-chlorophenyl)methyl]-5-[2-(3-fluoro-3-methylazetidin-1-yl)-2-oxoethyl]-6-oxo-5,6-dihydropyrido[2,3-b]pyrazine-7-carboxamide], the CC50 at 4 days [1] was greater than 40 µM, the IC50 [2] was less than 1 µM and the IC50 (hERG potassium channel; [4]) was greater than 10 µM. For the same compound, the EC50 [3] was greater than 1 µM.
For `CN1C(=O)CN(c2cnc3c(cc(C(=O)NCc4ccc(Cl)cc4)c(=O)n3CC(=O)N3CC4(CC4)C3)n2)C1=O` [Compound 15, 5-[2-(5-azaspiro[2.3]hexan-5-yl)-2-oxoethyl]-N-[(4-chlorophenyl)methyl]-2-(3-methyl-2,4-dioxoimidazolidin-1-yl)-6-oxo-5,6-dihydropyrido[2,3-b]pyrazine-7-carboxamide], the CC50 at 4 days [1] was greater than 40 µM, the IC50 [2] was less than 1 µM and the IC50 (hERG potassium channel) was less than 10 µM. For the same compound, the EC50 [3] was less than 1 µM.
For `CC(C)[C@H](N)C(=O)NCCN1CCN(c2cnc3c(cc(C(=O)NCc4ccc(Cl)cc4)c(=O)n3CC(=O)N3CC(C)(F)C3)n2)C1=O` [Compound 37, N-[(4-chlorophenyl)methyl]-5-[2-(3-fluoro-3-methylazetidin-1-yl)-2-oxoethyl]-6-oxo-2-{2-oxo-3-[2-(L-valylamino)ethyl]imidazolidin-1-yl}-5,6-dihydropyrido[2,3-b]pyrazine-7-carboxamide-hydrochloride salt], the CC50 at 4 days ([1]; MRC5 cells, 4 days, CCK8, highest concentration 40 μM, read-out: MCR5 CC50) was greater than 40 µM, the IC50 [2] was greater than 1 µM and the IC50 (hERG potassium channel; [4]) was greater than 10 µM. The EC50 [3] was less than 1 µM.
In the case of `CC1(F)CN(C(=O)Cn2c(=O)c(C(=O)NCc3ccc(Cl)cc3)cc3nc(N4CCN(CC(=O)O)C4=O)cnc32)C1` [Compound 13, [3-(7-{[(4-chlorophenyl)methyl]carbamoyl}-5-[2-(3-fluoro-3-methylazetidin-1-yl)-2-oxoethyl]-6-oxo-5,6-dihydropyrido[2,3-b]pyrazin-2-yl)-2-oxoimidazolidin-1-yl]acetic acid], the CC50 at 4 days [1] is reported as greater than 40 µM, the IC50 [2] is reported as less than 1 µM and the IC50 (hERG potassium channel; [4]) is reported as greater than 10 µM. It also gave an EC50 [3] greater than 1 µM.
`CC1(F)CN(C(=O)Cn2c(=O)c(C(=O)NCc3ccc(Cl)cc3)cc3nc(N4CCN(CC(N)=O)C4=O)cnc32)C1` [Compound 40, 2-[3-(2-amino-2-oxoethyl)-2-oxoimidazolidin-1-yl]-N-[(4-chlorophenyl)methyl]-5-[2-(3-fluoro-3-methylazetidin-1-yl)-2-oxoethyl]-6-oxo-5,6-dihydropyrido[2,3-b]pyrazine-7-carboxamide] gave a CC50 at 4 days [1] greater than 40 µM, an IC50 [2] of less than 1 µM and an IC50 (hERG potassium channel; [4]) greater than 10 µM. For the same compound, the EC50 [3] was greater than 1 µM.
